Assay results reported in US20240238231A1, “EDTA AND EGTA FOR USE IN PRESERVING THE INTEGRITY OF THERAPEUTIC COMPOUNDS” (Axcess (UK) Ltd, priority 2021, published 2024).
Each block holds one molecule with its values, some of them ahead of it.

How the values were obtained:
chymotrypsin = settings: in the presence of calcium ions only, FIG. 4
Method: Experiment 1 was repeated, except that chymotrypsin was employed, instead of trypsin, and the experiment was conducted in the presence of calcium ions only.

[1] = target: T1, Trypsin from porcine pancreas (Sus scrofa, UniProt P00761); assay: Inhibition of trypsin activity, fluorescence microplate assay with Z-L-arginine-4-methyl-7-coumarinylamide substrate; type: biochemical; settings: for effect on the activity of trypsin: pH 7, 30 minutes
T1 construct: from tissue; host or cells: porcine pancreas
Method: A dilute solution of phosphate-buffered saline (PBS) was prepared at a concentration of 0.3 mM phosphate (pH7), and used to dissolve calcium chloride dihydrate or magnesium chloride at a concentration of 0.3 mg/ml. Trypsin from porcine pancreas was dissolved in the Ca/PBS buffer, in either the presence or absence of calcium, at a concentration of trypsin at 0.02 mg/ml. 5 ml aliquots of disodium EDTA (dihydrate) solution were prepared in PBS with and without calcium or magnesium at doubling dilutions from 8 mg/ml downwards, and the pH of each solution adjusted to 7. Trypsin substrate (namely Z-L-arginine-4-methyl-7-coumarinylamide HCl) was dissolved in DMSO at a concentration of 0.125 mg/ml, then diluted 100-fold in Ca/PBS buffer. EDTA solutions were dispensed into the wells of a black microplate (60 ul per well) then 10 ul of trypsin solution was added, followed by 10 ul of substrate. The reaction was allowed to proceed for 30 minutes, and the extent of reaction determined in a fluorescence microplate reader by measuring the fluorescence of the reaction product (coumarin) at excitation wavelength 365 nm, emission 440 nm.
A dilute solution of phosphate-buffered saline (PBS) was prepared at a concentration of 0.3 mM phosphate (pH7), and used to dissolve calcium chloride dihydrate at a concentration of 0.3 mg/ml. Trypsin from porcine pancreas was dissolved in the Ca/PBS buffer at a concentration of 0.02 mg/ml trypsin. 5 ml aliquots of disodium EGTA (dihydrate) solution were prepared in PBS at doubling dilutions from 8 mg/ml downwards, and the pH of each solution adjusted to 7. Trypsin substrate (namely Z-L-arginine-4-methyl-7-coumarinylamide HCl) was dissolved in DMSO at a concentration of 0.125 mg/ml, then diluted 100-fold in Ca/PBS buffer. EGTA solutions were dispensed into the wells of a black microplate (60 ul per well) then 10 ul of trypsin solution was added, followed by 10 ul of substrate. The reaction was allowed to proceed for 30 minutes, and the extent of reaction determined in a fluorescence microplate reader by measuring the fluorescence of the reaction product (coumarin) at excitation wavelength 365 nm, emission 440 nm.
A dilute solution of phosphate-buffered saline (PBS) was prepared at a concentration of 0.3 mM phosphate (pH7), and used to dissolve calcium chloride dihydrate at a concentration of 0.3 mg/ml. Trypsin from porcine pancreas was dissolved in the buffer, in either the presence or absence of calcium, at a concentration of 0.02 mg/ml. 5 ml aliquots of disodium EGTA (dihydrate) solution and phenanthroline (Low concentrations of phenanthroline only were employed, because of its limited solubility in aqueous phase) were prepared in PBS with and without calcium at doubling dilutions from 8 mg/ml downwards, and the pH of each solution adjusted to 7. Trypsin substrate (namely Z-L-arginine-4-methyl-7-coumarinylamide HCl) was dissolved in DMSO at a concentration of 0.125 mg/ml, then diluted 100-fold in Ca/PBS buffer. EGTA solutions and phenanthroline were dispensed into the wells of a black microplate (60 ul per well) then 10 ul of trypsin solution was added, followed by 10 ul of substrate. The reaction was allowed to proceed for 30 minutes, and the extent of reaction determined in a fluorescence microplate reader by measuring the fluorescence of the reaction product (coumarin) at excitation wavelength 365 nm, emission 440 nm.

[2] = in combination with / in the presence of calcium (0.3 mg/ml), FIG. 1 and FIG. 3

T1 sequence (P00761 9-231): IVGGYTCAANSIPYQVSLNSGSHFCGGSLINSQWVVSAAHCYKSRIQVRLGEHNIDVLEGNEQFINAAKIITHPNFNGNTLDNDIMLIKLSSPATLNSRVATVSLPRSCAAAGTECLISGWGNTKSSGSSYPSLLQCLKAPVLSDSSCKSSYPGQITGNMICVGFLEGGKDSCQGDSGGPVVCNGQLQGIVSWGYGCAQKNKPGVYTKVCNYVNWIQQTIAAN

- effect on the activity of trypsin ([1]; EDTA alone (no calcium or magnesium), doubling dilutions from 8 mg/ml, FIG. 1): significant inhibitory effect
- effect on the activity of trypsin [1, 2]: significant inhibitory effect
- effect on the activity of trypsin ([1]; in combination with magnesium (0.5 mg/ml), FIG. 1): significant inhibitory effect
SMILES: O=C(O)CN(CCN(CC(=O)O)CC(=O)O)CC(=O)O [EDTA]
- effect on the protease activity of chymotrypsin (chymotrypsin): inhibitory effect

- effect on the activity of trypsin ([1]; EGTA doubling dilutions from 8 mg/ml, presence and absence of calcium ions, FIG. 2): inhibitory effect
SMILES: O=C(O)CN(CCOCCOCCN(CC(=O)O)CC(=O)O)CC(=O)O [EGTA]

- effect on the activity of trypsin [1, 2]: no effect
SMILES: O=C(O)CC(O)(CC(=O)O)C(=O)O [citrate, citric acid, reference compound]

- effect on the activity of trypsin [1, 2]: no inhibitory effect
SMILES: c1cnc2c(c1)ccc1cccnc12 [phenanthroline, ortho-phenanthroline, reference compound]

SMILES: [Zn+2] [zinc]
- effect of the metal ion on inhibition of trypsin by EDTA or EGTA ([1]; metal ion combined with EDTA or EGTA, calcium and magnesium show inhibition): has no such effect
